From patent publication EP1561465A2, “Methods of use of fluoroquinolone compounds against bacteria” (LG Life Sciences, Ltd., priority 1999, dated 2001)
≈ marks a conversion by molar mass, not a printed value. Where two headings read alike, the source gives them in different places.

How the values were obtained:
Test in all cases: MIC by NCCLS broth microdilution, 1100 Japanese clinical isolates 1997-1998
Format in all cases: cell-based
Staphylococcus aureus = conditions: for MIC: Staphylococcus aureus quinolone resistant
Streptococcus pyogenes = Streptococcus pyogenes (n=51)
Citrobacter freundii = tested on: Citrobacter freundii
Klebsiella pneumoniae = Klebsiella pneumoniae (n=35)
Shigella spp. = Shigella spp. (n=34)
Serratia marcescens = tested on: Serratia marcescens
[1] = Staphylococcus aureus oxacillin susceptible (n=41)
[2] = Staphylococcus aureus, Staphylococcus aureus oxacillin resistant (n=57)

NC1CCN(c2nc3c(cc2F)c(=O)c(C(=O)O)cn3-c2ccc(F)cc2F)C1 (stereo not drawn) [Tosufloxacin, tosufloxacin]
MIC90 (Staphylococcus aureus; [1]): 0.125 µg/mL (≈ 0.309 µM) | MIC Range (Staphylococcus aureus; [1]): 0.016 to 1 µg/mL | MIC50 (Staphylococcus aureus; [2]): 4 µg/mL (≈ 9.89 µM) | MIC90 (Staphylococcus aureus; [2]): > 16 µg/mL | MIC50 (Staphylococcus aureus; Staphylococcus aureus, Staphylococcus aureus oxacillin susceptible (n=41)): 0.063 µg/mL (≈ 0.156 µM) | MIC (Staphylococcus aureus; Staphylococcus aureus, strain TMS1* (spontaneous mutant resistant to ciprofloxacin)): 0.25 µg/mL (≈ 0.618 µM) | MIC (Staphylococcus aureus; Staphylococcus aureus, strain TMS3, read-out: MIC): > 16 µg/mL | MIC (Staphylococcus aureus; Staphylococcus aureus, strain TMS4, read-out: MIC): 4 µg/mL (≈ 9.89 µM) | MIC (Staphylococcus aureus; Staphylococcus aureus, strain TMS5, read-out: MIC): 4 µg/mL (≈ 9.89 µM) | MIC (Staphylococcus aureus; Staphylococcus aureus, strain TMS6, read-out: MIC): 2 µg/mL (≈ 4.95 µM) | MIC90 (Streptococcus pyogenes): 1 µg/mL (≈ 2.47 µM) | MIC Range (Streptococcus pyogenes): 0.063 to 1 µg/mL | MIC50 (Streptococcus pyogenes; read-out: MIC50): 0.25 µg/mL (≈ 0.618 µM) | MIC50 (Citrobacter freundii; Citrobacter freundii): 0.125 µg/mL (≈ 0.309 µM) | MIC90 (Citrobacter freundii; Citrobacter freundii (n=39)): 2 µg/mL (≈ 4.95 µM) | MIC Range (Citrobacter freundii; Citrobacter freundii (n=39)): 0.016 to 2 µg/mL | MIC50 (Klebsiella pneumoniae): 0.032 µg/mL (≈ 0.0791 µM) | MIC Range (Klebsiella pneumoniae): 0.016 to 2 µg/mL | MIC90 (Klebsiella pneumoniae; read-out: MIC90): 0.063 µg/mL (≈ 0.156 µM) | MIC50 (Shigella spp.): 0.016 µg/mL (≈ 0.0396 µM) | MIC90 (Shigella spp.): 0.016 µg/mL (≈ 0.0396 µM) | MIC Range (Shigella spp.): ≤0.008 to 0.032 µg/mL | MIC50 (Serratia marcescens; Serratia marcescens): 0.125 µg/mL (≈ 0.309 µM) | MIC90 (Serratia marcescens; Serratia marcescens (n=30)): 1 µg/mL (≈ 2.47 µM)
